Here are results for 19 molecules from US11446298B2, “Pyrimidine derivatives” (Idorsia Pharmaceuticals Ltd, priority 2017, dated 2022).

Structures are written as SMILES.

What all share (assay type): cell-based
For one test, the target named is T1, EP4 (Homo sapiens, UniProt P35408).
T1 construct: BT549 breast cancer cells, express high endogenous EP4 levels and very low EP2 levels; host or cells: BT549 breast cancer cells
Kind of test: hEP4 cAMP Assay (BT549 breast cancer cells, HTRF cAMP, PGE2 6 nM). The conditions noted are these: antagonistic activity, PGE2 6 nM (EC80). The essentials: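 BT549 cells (endogenous EP4, very low EP2) in HBSS/20 mM HEPES/0.2% BSA/2 mM IBMX, pre-incubated 45 min RT with compound, then stimulated 30 min RT with PGE2 6 nM (EC80). cAMP read by HTRF competitive immunoassay (665/620 nm), converted via calibrator to % of DMSO control; IC50 from duplicate dose-response curves.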
In general terms: Time-resolved FRET reads energy transfer from a long-lived donor to a nearby acceptor.

The target of the next test is T2, PTGER4 (EP4) (Homo sapiens, UniProt P35408).
T2 construct: host or cells: HEK 293 (PathHunter, stably transfected)
The experiment in a line: hEP4 b-Arrestin Assay (PathHunter HEK 293 PTGER4 b-arrestin cells, PGE2 20 nM). The conditions noted are these: antagonistic activity, beta-arrestin assay, HEK 293 PTGER4 cells, PGE2 20 nM (EC80); read-out: hEP4 b-arr IC50. The protocol: The antagonistic activities of the compounds of formula (I) on the EP2 and EP4 receptors are also determined in accordance with the following experimental method.
The assay is using the PathHunter™ HEK 293 PTGER2 and PTGER4 b-arrestin cell lines from DiscoverX. The system is based on the Enzyme Fragment Complementation Technology. Two complementing fragments of the b-galactosidase enzyme are expressed within stably transfected cells. The larger portion of b-gal, termed EA for Enzyme Acceptor, is fused to the C-terminus of b-arrestin 2. The smaller fragment, termed ProLink™ tag, is fused to PTGER2 (EP2) or PTRGER4 (EP4) at the C-terminus. Upon activation, b-arrestin is recruited which forces the interaction of ProLink and EA, allowing complementation of the two fragments of b-gal and the formation of a functional enzyme which is capable of hydrolysing the substrate and generating a chemiluminescent signal.
The HEK 293 PTGER4 b-arrestin cells (DiscoverX 93-030-4C1) are detached from culture dishes with a cell dissociation buffer (Invitrogen, 13151-014), and collected in growing medium (GM: DMEM+Glutamax-I (Invitrogen 32430)/10% FCS, 1% Penicilin/streptomycin). 5000 cells per well of a 384 well plate (white with white bottom Greiner 781080) are seeded in 20 ul per well of GM. Plate is incubated at 37° C., 5% CO2 for 24 hours.
Stock solutions of test compounds are made at a concentration of 10 mM in DMSO, and serially diluted in DMSO to concentrations required for inhibition dose response curves (tested concentration range 10 μM-2 nM or 1 μM-0.2 nM).
PGE2 (Cayman 14010, stock solution: 100 μM in DMSO) is used as agonist at 20 nM final concentration, corresponding to EC80.
Five microliters of diluted compounds are transferred into the assay plate. Plate is pre-incubated 15 minutes at 37° C. Then five microliters of PGE2 (final conc. 20 nM) are transferred into the assay plate. Plate is incubated 120 minutes at 37° C.
PathHunter Glo Detection Kit components are thawed and mix according to manufacturer's instructions: 1 part Galacton Star Substrate with 5 parts Emerald II™ Solution, and 19 parts of PathHunter Cell Assay Buffer, respectively. Twelve μl of reagent are transferred to the assay plate and incubate for 1 hour at room temperature in the dark. Luminescence counts are read on a BMG Fluostar Optima reader according to manufacturer's instructions.
For each compound concentration calculate of the percentage of activity compared to DMSO control value as average ±STDEV. (each concentration is measured in duplicate)
IC50 values and curves are generated with XLfit software (IDBS) using Dose-Response One Site model 203. When compounds were measured multiple times, mean values are given.

In the next test the target is T3, EP2 (Homo sapiens, UniProt P43116).
T3 construct: SF295 glioblastoma cells express high endogenous EP2 and no EP4; host or cells: SF295 glioblastoma cells
The experiment in a line: hEP2 cAMP Assay (SF295 glioblastoma cells, HTRF cAMP, PGE2 75 nM). The conditions noted are these: antagonistic activity, PGE2 75 nM (EC80). The essentials: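 IC50 values derive from duplicate-point curves of percent cAMP relative to DMSO, read by HTRF (665/620 nm) against a cAMP calibrator. Compounds (30 μM to 0.01 nM ranges) were given 45 min at room temperature before 30 min with 75 nM PGE2, in EP2-only SF295 cells with 2 mM IBMX.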

In a further test the target is T4, PTGER2 (EP2) (Homo sapiens, UniProt P43116).
T4 construct: host or cells: HEK 293 (PathHunter, stably transfected)
The experiment in a line: hEP2 b-Arrestin Assay (PathHunter HEK 293 PTGER2 b-arrestin cells, PGE2 5 μM). The conditions noted are these: antagonistic activity, beta-arrestin assay, HEK 293 PTGER2 cells, PGE2 5 μM (EC80); read-out: hEP2 b-arr IC50. In outline:
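PathHunter enzyme-fragment complementation in HEK 293 cells: compounds (10 μM-2 nM or 1 μM-0.2 nM) pre-incubated 15 min at 37 °C, then 5 μM PGE2 (EC80) for 120 min at 37 °C. Chemiluminescence read after 1 h detection; IC50 from duplicate dose-response fits, means of repeats.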

T3 sequence (P43116 whole entry): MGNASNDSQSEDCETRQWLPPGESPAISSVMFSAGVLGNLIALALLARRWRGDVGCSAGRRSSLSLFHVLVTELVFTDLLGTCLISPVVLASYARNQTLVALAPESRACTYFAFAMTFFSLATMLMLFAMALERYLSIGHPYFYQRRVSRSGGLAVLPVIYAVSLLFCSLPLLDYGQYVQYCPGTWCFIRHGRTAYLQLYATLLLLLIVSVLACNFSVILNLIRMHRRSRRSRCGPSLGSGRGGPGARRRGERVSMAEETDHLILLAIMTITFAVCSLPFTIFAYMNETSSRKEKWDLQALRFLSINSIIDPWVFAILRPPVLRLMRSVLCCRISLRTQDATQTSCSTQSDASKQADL
T4 sequence (P43116 whole entry): as above
T1 sequence (P35408 whole entry): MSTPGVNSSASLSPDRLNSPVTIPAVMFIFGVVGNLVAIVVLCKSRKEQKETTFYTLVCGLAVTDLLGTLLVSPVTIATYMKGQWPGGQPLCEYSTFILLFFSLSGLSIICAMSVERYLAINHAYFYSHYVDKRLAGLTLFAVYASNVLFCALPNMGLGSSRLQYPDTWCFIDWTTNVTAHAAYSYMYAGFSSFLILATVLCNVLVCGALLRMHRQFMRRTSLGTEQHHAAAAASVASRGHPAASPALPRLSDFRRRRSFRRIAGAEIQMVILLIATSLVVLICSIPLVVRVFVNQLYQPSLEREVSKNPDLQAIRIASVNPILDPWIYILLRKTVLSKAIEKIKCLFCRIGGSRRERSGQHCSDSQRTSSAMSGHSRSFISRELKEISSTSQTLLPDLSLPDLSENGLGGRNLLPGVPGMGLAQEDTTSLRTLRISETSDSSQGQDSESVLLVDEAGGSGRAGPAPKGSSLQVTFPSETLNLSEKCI
T2 sequence (P35408 whole entry): as above

A word on the IC50: it is the midpoint of a concentration-inhibition curve. Regarding `CCOc1cc(-c2cc(NCCc3c(OC)ccc4ccccc34)ncn2)ccc1OCCC(=O)O` [Example 120, 3-(2-Ethoxy-4-{6-[2-(2-methoxy-naphthalen-1-yl)-ethylamino]-pyrimidin-4-yl}-phenoxy)-propionic acid], the 50% inhibitory concentration (IC50) was 206 nM on EP4, 75 nM at PTGER4 (EP4), 88 nM against EP2 and 16 nM on PTGER2 (EP2).

Take `CCOc1cc(-c2cc(NCCc3c(C)ccc4ncccc34)ncn2)sc1C(=O)O` [Example 2, 3-Ethoxy-5-{6-[2-(6-methyl-quinolin-5-yl)-ethylamino]-pyrimidin-4-yl}-thiophene-2-carboxylic acid]: the IC50 at EP4 was found to be 100 nM; at PTGER4 (EP4), 311 nM; against EP2, 47 nM; on PTGER2 (EP2), 27 nM.

As to `CCOc1cc(-c2cc(NCCc3c(C#N)ccc4c(OC)ccc(F)c34)ncn2)sc1C(=O)O` [Example 158, 5-{6-[2-(2-Cyano-8-fluoro-5-methoxy-naphthalen-1-yl)-ethylamino]-pyrimidin-4-yl}-3-ethoxy-thiophene-2-carboxylic acid], the half-maximal inhibitory concentration (IC50) against EP4 is 3 nM; at PTGER4 (EP4), 3 nM; against EP2 it was 286 nM; at PTGER2 (EP2) it was 126 nM.

Consider `CCOc1cc(-c2cc(NCCc3c(N)ccc4ccccc34)ncn2)sc1C(=O)O` [Example 78, 5-{6-[2-(2-Amino-naphthalen-1-yl)-ethylamino]-pyrimidin-4-yl}-3-ethoxy-thiophene-2-carboxylic acid], for which the IC50 against EP4 turned out to be 51 nM; on PTGER4 (EP4), 50 nM; at EP2, 56 nM; on PTGER2 (EP2), 41 nM.

Take `CCOc1cc(-c2cc(NCCc3c(OC)ccc4ncccc34)ncn2)sc1-c1nnn[nH]1` [Example 145, {6-[4-Ethoxy-5-(1H-tetrazol-5-yl)-thiophen-2-yl]-pyrimidin-4-yl}-[2-(6-methoxy-quinolin-5-yl)-ethyl]-amine]: the IC50 against EP4 was found to be 53 nM; on PTGER4 (EP4), 18 nM; against EP2 it was 81 nM; at PTGER2 (EP2) it was 16 nM.

Regarding `CCOc1cc(-c2cc(NCCc3c(F)ccc4ccccc34)ncn2)sc1C(=O)O` [Example 95, 3-Ethoxy-5-{6-[2-(2-fluoro-naphthalen-1-yl)-ethylamino]-pyrimidin-4-yl}-thiophene-2-carboxylic acid], the half-maximal inhibitory concentration (IC50) was found to be 21 nM against EP4, 51 nM at PTGER4 (EP4), 4 nM against EP2 and 8 nM at PTGER2 (EP2).

`CCOc1cc(-c2cc(NCCc3cccc4c(C)c(C)n(C)c34)ncn2)sc1C(=O)O` [Example 29, 3-Ethoxy-5-{6-[2-(1,2,3-trimethyl-1H-indol-7-yl)-ethylamino]-pyrimidin-4-yl}-thiophene-2-carboxylic acid]: the IC50 amounted to 148 nM at EP4, 164 nM at PTGER4 (EP4), 136 nM against EP2 and 241 nM on PTGER2 (EP2).

In the case of `CCOc1ccc2ccccc2c1CCNc1cc(-c2ccc(C(=O)O)c(OC3CCC3)c2)ncn1` [Example 26, 2-Cyclobutoxy-4-{6-[2-(2-ethoxy-naphthalen-1-yl)-ethylamino]-pyrimidin-4-yl}-benzoic acid], the half-maximal inhibitory concentration (IC50) came out at 566 nM on EP4, 392 nM on PTGER4 (EP4), 11 nM on EP2 and 10 nM on PTGER2 (EP2).

With `CCOc1cc(-c2cc(NCCc3c(OC)ccc4c3OCO4)ncn2)sc1C(=O)O` [Example 44, 3-Ethoxy-5-{6-[2-(5-methoxy-benzo[1,3]dioxol-4-yl)-ethylamino]-pyrimidin-4-yl}-thiophene-2-carboxylic acid], the IC50 came to 42 nM against EP4, 51 nM on PTGER4 (EP4), 37 nM at EP2 and 36 nM at PTGER2 (EP2).

As for `CSc1cc(-c2cc(NCCc3c(C)ccc4c3ccn4C)ncn2)ccc1C(=O)O` [Example 176, 4-{6-[2-(1,5-Dimethyl-1H-indol-4H)-ethylamino]-pyrimidin-4-yl}-2-methylsulfanyl-benzoic acid], the half-maximal inhibitory concentration (IC50) on PTGER4 (EP4) was found to be 550 nM; on PTGER2 (EP2), 3 nM.

`CCOc1cc(-c2cc(NCCc3ccc(Br)c4ccn(C)c34)ncn2)ccc1C(=O)O` [Example 180, 4-{6-[2-(4-Bromo-1-methyl-1H-indol-7-yl)-ethylamino]-pyrimidin-4-yl}-2-ethoxy-benzoic acid]: the figures for the half-maximal inhibitory concentration (IC50) at PTGER4 (EP4) and at PTGER2 (EP2) were 235 nM and 441 nM, respectively.

On to `CCOc1cc(-c2cc(NCCc3c(Br)cc(F)c4ccccc34)ncn2)ccc1C(=O)O` [Example 181, 4-{6-[2-(2-Bromo-4-fluoro-naphthalen-1-yl)-ethylamino]-pyrimidin-4-yl}-2-ethoxy-benzoic acid], for which the half-inhibitory concentration (IC50) on PTGER4 (EP4) is 887 nM; on PTGER2 (EP2), 962 nM.

For `COc1ccc2ccn(C)c2c1CCNc1cc(-c2ccc(C(=O)O)c(SC)c2)ncn1` [Example 168, 4-{6-[2-(6-Methoxy-1-methyl-1H-indol-7-yl)-ethylamino]-pyrimidin-4-yl}-2-methylsulfanyl-benzoic acid], the IC50 on PTGER4 (EP4) is 108 nM; at PTGER2 (EP2) it was 93 nM.

`CCOc1cc(-c2cc(NCCc3ccc(Br)c4ccccc34)ncn2)ccc1CC(=O)O` [Example 162, (4-{6-[2-(4-Bromo-naphthalen-1-yl)-ethylamino]-pyrimidin-4-yl}-2-ethoxy-phenyl)-acetic acid]: the IC50 at PTGER4 (EP4) worked out at 114 nM; at PTGER2 (EP2) it was 219 nM.

With `CSc1cc(-c2cc(NCCc3cc(F)cc4ccccc34)ncn2)ccc1C(=O)O` [Example 178, 4-{6-[2-(3-Fluoro-naphthalen-1-yl)-ethylamino]-pyrimidin-4-yl}-2-methylsulfanyl-benzoic acid], the half-inhibitory concentration (IC50) was 871 nM on PTGER4 (EP4) and 142 nM on PTGER2 (EP2).

`COc1ccc2sccc2c1CCNc1cc(-c2ccc(C(=O)O)c(SC)c2)ncn1` [Example 174, 4-{6-[2-(5-Methoxy-benzo[b]thiophen-4-yl)-ethylamino]-pyrimidin-4-yl}-2-methylsulfanyl-benzoic acid]: the results for the IC50 at PTGER4 (EP4) and on PTGER2 (EP2) were 298 nM and 8 nM, respectively.

With `CCOc1cc(-c2cc(NCCc3c(OCC)ccc4sccc34)ncn2)ccc1C(=O)O` [Example 187, 2-Ethoxy-4-{6-[2-(5-ethoxy-benzo[b]thiophen-4-yl)-ethylamino]-pyrimidin-4-yl}-benzoic acid], the IC50 worked out at 563 nM at PTGER4 (EP4) and 10 nM on PTGER2 (EP2).

Take `CCOc1cc(-c2cc(NCCc3c(OC)ccc4ccccc34)ncn2)ccc1-c1noc(=S)[nH]1` [Example 189, 3-(2-Ethoxy-4-{6-[2-(2-methoxy-naphthalen-1-yl)-ethylamino]-pyrimidin-4-yl}-phenyl)-[1,2,4]-oxadiazole-5(4H)-thione]: the figures for the half-maximal inhibitory concentration (IC50) at PTGER4 (EP4) and at PTGER2 (EP2) were 16 nM and 5 nM, respectively.

Regarding `CCOc1cc(-c2cc(NCCc3cccc4c(F)cccc34)ncn2)ccc1C(=O)O` [Example 183, 2-Ethoxy-4-{6-[2-(5-fluoro-naphthalen-1-yl)-ethylamino]-pyrimidin-4-yl}-benzoic acid], the figures for the concentration for half-maximal inhibition (IC50) at PTGER4 (EP4) and at PTGER2 (EP2) were 701 nM and 60 nM, respectively.
